What was measured:
human Edg-1(S1P1) [1] = biological target: T1, human Edg-1(S1P1) (Homo sapiens, UniProt P21453); assay: Membrane system binding test: inhibition of [33P]-S1P binding to the membrane fraction of Edg-1(S1P1) gene transferred HEK-293 cells; conditions: 10 μM compound; [33P]-S1P 0.1 nM; membrane fraction of Edg-1(S1P1) gene transferred HEK-293 cells; read-out: Membrane system binding test % inhibition (10 μM)
T1 construct: expressed in transfected cells; host or cells: HEK-293
How it was run: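 Membranes from HEK-293 cells transfected with Edg-1(S1P1) incubated 1 h at 30 °C with 0.1 nM [^33P]-S1P and compound at 10^−5 M (0.1% DMSO), pH 7.4 buffer with fatty acid-free BSA. Filter-bound radioactivity counted; inhibition rate calculated against no-compound binding, with untransfected-cell background subtracted.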

human Edg-1(S1P1) [2] = biological target: T1, human Edg-1(S1P1); assay: Cell system binding test: inhibition of [3H]-S1P binding to Edg-1(S1P1) gene transferred HEK-293 cells; conditions: 10 μM compound, [3H]-S1P 10 nM, read-out: Cell system binding test % inhibition (10 μM)

T1 sequence (P21453 whole entry): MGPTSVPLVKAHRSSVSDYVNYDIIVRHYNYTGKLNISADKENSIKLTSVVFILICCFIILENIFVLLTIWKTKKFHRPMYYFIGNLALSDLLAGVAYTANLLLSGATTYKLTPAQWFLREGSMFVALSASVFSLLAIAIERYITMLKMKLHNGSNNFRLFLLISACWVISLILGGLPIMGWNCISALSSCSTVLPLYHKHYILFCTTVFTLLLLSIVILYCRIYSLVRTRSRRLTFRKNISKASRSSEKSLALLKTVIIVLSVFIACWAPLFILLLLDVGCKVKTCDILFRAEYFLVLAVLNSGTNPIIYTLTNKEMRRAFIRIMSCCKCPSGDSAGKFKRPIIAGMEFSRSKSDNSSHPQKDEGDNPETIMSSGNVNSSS

Structure (SMILES)	inhibition at 10 µM (human Edg-1(S1P1) [1]) [%]	inhibition at 10 µM (human Edg-1(S1P1) [2]) [%]
CCn1c(OC)nnc1[C@@H](C)NS(=O)(=O)c1ccc(C(C)C)cc1 [Compound 282]	48.1	92.7
CCCCCc1ccc(S(=O)(=O)N[C@H](C)c2nnc(OC)n2CC)cc1 [Compound 284]	41.5	88
CCn1c(OC)nnc1[C@@H](C)NS(=O)(=O)c1ccc(F)c(F)c1F [Compound 285]	63.9	97.1
CCn1c(OC)nnc1[C@@H](C)NS(=O)(=O)c1cc(F)ccc1F [Compound 286]	57.4	97.5
CCn1c(OC)nnc1[C@@H](C)NS(=O)(=O)c1ccc(F)c(F)c1 [Compound 287]	80.1	100
CCn1c(OC)nnc1[C@@H](C)NS(=O)(=O)c1ccc(Br)cc1F [Compound 288]	54.9	103
CCn1c(OC)nnc1[C@@H](C)NS(=O)(=O)c1cc(F)c(Cl)cc1F [Compound 289]	63.6	102
CCn1c(OC)nnc1[C@@H](C)NS(=O)(=O)Cc1cc(Cl)cc(Cl)c1 [Compound 292]	51.4	96.7
CCn1c(OC)nnc1[C@@H](C)NS(=O)(=O)c1cccc(F)c1 [Compound 299]	44.4	94.5
CCn1c(OC)nnc1[C@@H](C)NS(=O)(=O)c1cc(F)c(F)cc1F [Compound 302]	57.7	98.7
CCn1c(OC)nnc1[C@@H](C)NS(=O)(=O)c1cc(Br)ccc1Br [Compound 303]	56.1	97.7
CCn1c(OC)nnc1[C@@H](C)NS(=O)(=O)c1ccc(Br)cc1Br [Compound 306]	62.8	94.5
CCn1c(OC)nnc1[C@@H](C)NS(=O)(=O)c1ccc(F)c(C#N)c1 [Compound 307]	68	96.2
CCn1c(OC)nnc1[C@@H](C)NS(=O)(=O)c1cc(C)cc(C)c1 [Compound 308]	68.1	95.5
CCn1c(OC)nnc1[C@@H](C)NS(=O)(=O)c1ccc(OC(F)F)cc1 [Compound 309]	46.5	93.2
CCn1c(OC)nnc1[C@@H](C)NS(=O)(=O)c1cccc(OC(F)F)c1 [Compound 310]	78.8	98.5
CCn1c(OC)nnc1[C@@H](C)NS(=O)(=O)c1cc(F)cc(F)c1 [Compound 311]	52.4	97.6
CCn1c(OC)nnc1[C@@H](C)NS(=O)(=O)c1ccc(Cl)cc1F [Compound 312]	50.7	95.9
CCn1c(OC)nnc1[C@@H](C)NS(=O)(=O)c1cc(F)c(F)c(F)c1 [Compound 313]	93.2	100
CCn1c(OC)nnc1[C@@H](C)NS(=O)(=O)c1ccc(Br)c(C)c1 [Compound 314]	100	102
CCn1c(OC)nnc1[C@@H](C)NS(=O)(=O)c1ccc(C)c(F)c1 [Compound 315]	85	100
CCn1c(OC)nnc1[C@@H](C)NS(=O)(=O)c1ccc(Br)c(F)c1 [Compound 317]	95.8	97.2
CCn1c(OC)nnc1[C@@H](C)NS(=O)(=O)c1ccc(C)c(C)c1 [Compound 319]	89.9	93.4
CCn1c(OC)nnc1[C@@H](C)NS(=O)(=O)c1cc(C)ccc1F [Compound 320]	47.9	93.5
CCn1c(OC)nnc1[C@@H](C)NS(=O)(=O)c1ccc(F)c(C(F)(F)F)c1 [Compound 321]	99.7	100
CCn1c(OC)nnc1[C@@H](C)NS(=O)(=O)c1cccc(Cl)c1F [Compound 322]	43.5	95.9
CCn1c(OC)nnc1[C@@H](C)NS(=O)(=O)c1ccc2c(c1)CCO2 [Compound 337]	61.3	102

Continued, values first:

inhibition at 10 µM (human Edg-1(S1P1) [1]) [%]	inhibition at 10 µM (human Edg-1(S1P1) [2]) [%]	Structure (SMILES)
69.4	103	CCn1c(OC)nnc1[C@@H](C)NS(=O)(=O)c1ccc2c(c1)OCCO2 [Compound 338]
99.4	99.4	CCn1c(OC)nnc1[C@@H](C)NS(=O)(=O)c1ccc2nsnc2c1 [Compound 341]
41.4	98.9	CCn1c(OC)nnc1[C@@H](C)NS(=O)(=O)c1ccc2c(c1)OCCCO2 [Compound 343]
65.8	102	CCn1c(OC)nnc1[C@@H](C)NS(=O)(=O)c1ccc2c(c1)OCCN2C [Compound 344]
62.8	101	CCn1c(OC)nnc1[C@@H](C)NS(=O)(=O)c1cccc(C(C)=O)c1 [Compound 355]
41.8	81.7	CCn1c(OC)nnc1[C@@H](C)NS(=O)(=O)c1cccc2cnccc12 [Compound 365]
41.8	97	CCn1c(OC)nnc1[C@@H](C)NS(=O)(=O)c1cc(C)sc1C [Compound 367]
85.1	102	CCn1c(OC)nnc1[C@@H](C)NS(=O)(=O)c1csc2ccccc12 [Compound 368]
102	105	CCn1c(OC)nnc1[C@@H](C)NS(=O)(=O)c1cc2ccccc2s1 [Compound 369]
61.2	102	CCn1c(OC)nnc1[C@@H](C)NS(=O)(=O)c1cc(Br)cc(C(F)(F)F)c1 [Compound 371]
94.3	105	CCn1c(OC)nnc1[C@@H](C)NS(=O)(=O)c1ccc(Br)c(C(F)(F)F)c1 [Compound 372]
54.3	92.6	CCn1c(OCCOC)nnc1[C@@H](C)NS(=O)(=O)c1ccc(Cl)cc1 [Compound 375]
90.3	97.9	CCn1c(OCC(C)(C)C)nnc1[C@@H](C)NS(=O)(=O)c1ccc(Cl)cc1 [Compound 377]
87.2	103	CCn1c(OCC2CCCCC2)nnc1[C@@H](C)NS(=O)(=O)c1ccc(Cl)cc1 [Compound 378]
93.4	99.7	CCn1c(OC(C)C)nnc1[C@@H](C)NS(=O)(=O)c1ccc(Cl)cc1 [Compound 379]
85.2	105	CCn1c(OCCCCCO)nnc1[C@@H](C)NS(=O)(=O)c1ccc(Cl)cc1 [Compound 380]
94.9	97.1	CCn1c(OCc2ccccc2)nnc1[C@@H](C)NS(=O)(=O)c1ccc(Cl)cc1 [Compound 381]

inhibition at 10 µM (human Edg-1(S1P1) [1]) [%]	inhibition at 10 µM (human Edg-1(S1P1) [2]) [%]	Structure (SMILES)
99.6	97.8	CCn1c(OC2CCCC2)nnc1[C@@H](C)NS(=O)(=O)c1ccc(Cl)cc1 [Compound 382]
66	82.2	CCN(CC)C(=O)COc1nnc([C@@H](C)NS(=O)(=O)c2ccc(Cl)cc2)n1CC [Compound 383]
93.5	104	C=CCCCOc1nnc([C@@H](C)NS(=O)(=O)c2ccc(Cl)cc2)n1CC [Compound 384]
90.1	99.9	CCn1c(OCC2CCC2)nnc1[C@@H](C)NS(=O)(=O)c1ccc(Cl)cc1 [Compound 385]
99.5	103	CCCOc1nnc([C@@H](Cc2ccccc2)NS(=O)(=O)c2ccc(Cl)cc2)n1CC [Compound 386]
99.3	102	CCn1c(OC2CCC2)nnc1[C@@H](C)NS(=O)(=O)c1ccc(Cl)cc1 [Compound 387]
103	104	CCn1c(OC2CCCCC2)nnc1[C@@H](C)NS(=O)(=O)c1ccc(Cl)cc1 [Compound 388]
89.6	96.3	CCn1c(OCC(C)C)nnc1[C@@H](C)NS(=O)(=O)c1ccc(Cl)cc1 [Compound 389]
99.8	101	CCn1c(OC)nnc1[C@@H](Cc1ccccc1)NS(=O)(=O)c1ccc(Cl)cc1 [Compound 390]
78.3	92.5	CCn1c(OCCC(C)C)nnc1[C@@H](C)NS(=O)(=O)c1ccc(Cl)cc1 [Compound 391]
85.1	95.6	CCn1c(OC2CCOC2)nnc1[C@@H](C)NS(=O)(=O)c1ccc(Cl)cc1 (some centres unmarked) [Compound 392]
65.3	82.4	CCn1c(OCCN2CCOCC2)nnc1[C@@H](C)NS(=O)(=O)c1ccc(Cl)cc1 [Compound 393]
76.9	82.9	CCn1c(OCCCN2CCOCC2)nnc1[C@@H](C)NS(=O)(=O)c1ccc(Cl)cc1 [Compound 394]
83.7	91.9	CCn1c(OCC(F)(F)F)nnc1[C@@H](C)NS(=O)(=O)c1ccc(Cl)cc1 [Compound 395]
83.3	87.9	CCCCOc1nnc([C@@H](C)NS(=O)(=O)c2ccc(Cl)cc2)n1CC [Compound 396]
92	88.6	CCn1c(OCCCC(F)(F)F)nnc1[C@@H](C)NS(=O)(=O)c1ccc(Cl)cc1 [Compound 397]
93.5	85.8	CCn1c(OCCCOC)nnc1[C@@H](C)NS(=O)(=O)c1ccc(Cl)cc1 [Compound 398]
